Assay results from US20230053540A1, “TREATMENT OF LIVER INJURY” (Massachusetts Institute of Technology, priority 2019, published 2023).

System: hepatocytes
Experiment: Seq-Well scRNA-Seq of hepatocytes after APAP overdose (signature scores, DEG vs untreated)
Assay type: in vivo, mouse
[1] = cluster A96 (APAP, 96 h) vs other clusters, Wilcox
[2] = cluster A96, DEG between treatment (APAP and PH)

## CC(=O)Nc1ccc(O)cc1 [APAP, acetaminophen]
[1]
  Acaa1b avg_logFC: 0.282
  Acat1 avg_logFC: 0.2558
  Acot1 avg_logFC: 0.3106
  Agpat6 avg_logFC: 0.3143
  Agt avg_logFC: 0.255
  Akr1d1 avg_logFC: 0.2994
  Aldh9a1 avg_logFC: 0.2585
  Apo17a avg_logFC: 0.2518
  Apoc2 avg_logFC: 0.2781
  Aqp9 avg_logFC: 0.3178
  Arl4a avg_logFC: 0.2706
  Asl avg_logFC: 0.275
  Baat avg_logFC: 0.2728
  Bnip3 avg_logFC: 0.3208
  Cd36 avg_logFC: 0.3129
  Ces1e avg_logFC: 0.2566
  Cox5a avg_logFC: 0.2728
  Cox6a1 avg_logFC: 0.2746
  Cox8a avg_logFC: 0.2519
  Cpeb4 avg_logFC: 0.3011
  Cpox avg_logFC: 0.3229
  Cpt1a avg_logFC: 0.2626
  Creg1 avg_logFC: 0.2517
  Csad avg_logFC: 0.4207
  Ctage5 avg_logFC: 0.2535
  Cth avg_logFC: 0.2966
  Cxcl12 avg_logFC: 0.2822
  D4Wsu53e avg_logFC: 0.2928
  Decr2 avg_logFC: 0.3018
  Dhdh avg_logFC: 0.2626
  Etfdh avg_logFC: 0.2639
  Etnppl avg_logFC: 0.3154
  Fmo1 avg_logFC: 0.265
  G0s2 avg_logFC: 0.2656
  G6pc avg_logFC: 0.2541
  Gabarapl1 avg_logFC: 0.2932
  Gadd45b avg_logFC: 0.2598
  Gas5 avg_logFC: 0.2823
  Gm4952 avg_logFC: 0.2581
  Gsta2 avg_logFC: 0.311
  Gstt3 avg_logFC: 0.3026
  Gyk avg_logFC: 0.3134
  Hmgcl avg_logFC: 0.2744
  Hmgcs1 avg_logFC: 0.3251
  Hpgd avg_logFC: 0.3412
  Hsd17b7 avg_logFC: 0.3028
  Hsd17b10 avg_logFC: 0.2802
  Kif1b avg_logFC: 0.2961
  Leaf avg_logFC: 0.2616
  Mia3 avg_logFC: 0.2605
  Ndufa3 avg_logFC: 0.2743
  Ndufa7 avg_logFC: 0.26
  Nr1i3 avg_logFC: 0.3481
  Oat avg_logFC: 0.4904
  Pon1 avg_logFC: 0.2899
  Ppp1r3b avg_logFC: 0.251
  Ppp2r5a avg_logFC: 0.3505
  Ptms avg_logFC: 0.2863
  Pxmp4 avg_logFC: 0.2555
  Rdh16 avg_logFC: 0.3477
  Sc4mol avg_logFC: 0.3361
  Slc4a4 avg_logFC: 0.2977
  Slc25a20 avg_logFC: 0.2507
  Slco1a4 avg_logFC: 0.3049
  Snord118 avg_logFC: 0.3782
  Tgoln1 avg_logFC: 0.2809
  Tmed5 avg_logFC: 0.2523
  Tobi avg_logFC: 0.2958
  Tsc22d3 avg_logFC: 0.3362
  Zfp36l1 avg_logFC: 0.2964
  Zfp91 avg_logFC: 0.2775
[2]
  avg_logFC, gene Abcc3: 0.2743
  avg_logFC, gene Acaa1b: 0.282
  avg_logFC, gene Acat1: 0.2558
  avg_logFC, gene Acot1: 0.3106
  avg_logFC, gene Agpat6: 0.3143
  avg_logFC, gene Agt: 0.255
  avg_logFC, gene Akr1d1: 0.2994
  avg_logFC, gene Aldh9a1: 0.2585
  avg_logFC, gene Aplp2: 0.2903
  avg_logFC, gene Apo17a: 0.2518
  avg_logFC, gene Apoc2: 0.2781
  avg_logFC, gene Aqp9: 0.3178
  avg_logFC, gene Arl4a: 0.2706
  avg_logFC, gene Asl: 0.275
  avg_logFC, gene Baat: 0.2728
  avg_logFC, gene Bnip3: 0.3208
  avg_logFC, gene Cd36: 0.3129
  avg_logFC, gene Ces1e: 0.2566
  avg_logFC, gene Cox5a: 0.2728
  avg_logFC, gene Cox6a1: 0.2745
  avg_logFC, gene Cox8a: 0.2519
  avg_logFC, gene Cpeb4: 0.3011
  avg_logFC, gene Cpox: 0.3229
  avg_logFC, gene Cpt1a: 0.2626
  avg_logFC, gene Creg1: 0.2517
  avg_logFC, gene Csad: 0.4207
  avg_logFC, gene Ctage5: 0.2535
  avg_logFC, gene Cth: 0.2966
  avg_logFC, gene Cxcl12: 0.2821
  avg_logFC, gene D4Wsu53e: 0.2928
